Tests used:
[1] = tested on: T2 cells loaded with polypeptide; test: CD8+ T cell killing activity by LDH release assay; format: cell-based, human; conditions: T cells activated by listed polypeptide; for Killing of T2 cells loaded with the mutant polypeptide (in words) / Killing of T2 cells loaded with the wild-type polypeptide (in words): effector:target 1:1 or 1:10; for Killing efficiency: 4 hours
Procedure: The mixture of cells collected in the example 3 were incubated with the T2 cells loaded with the mutant polypeptide (depicted in […], SEQ ID NO:1) or the wild-type polypeptide (depicted in […], SEQ ID NO:5), or the T2 cells without polypeptide respectively for 4 hours; after which 50 μL cell supernatant collected from each well was individually added into 50 μL substrate mixture of LDH for catalyzation of the LDH substrate, and the absorbance at wavelengths of 490 nm and 680 nm (as a reference) is measured, where a maximum release well, a volume correction well, a medium alone well, a spontaneous release well of effector cell and a spontaneous release well of target well as different control wells, as well effector cells (T cells) and target cells (T2 cell) in different ratios as experiment wells are set in triplicate.
The killing efficiency of CD8^+ T cells to T2 cells is calculated by the following formula: Killing efficiency (%)=(experiment well−spontaneous release well of effector cell−spontaneous release well of target well+medium alone well)/(maximum release well of target well−volume correction well−spontaneous release well of target well+medium alone well)×100%.
PMS) and reduced lodonitrotetrazolium chloride (INT) or Nitrotetrazolium Blue chloride (NBT), thus the viability of effector cells can be calculated according to the OD value.

[2] = tested on: human non-small cell lung adenocarcinoma cell line H2087—polypeptide FLLGNLFFV (SEQ ID NO:1); test: Lentivirus-infected DCs vaccine in subcutaneous tumor-modeled mice; format: in vivo, NOD/SCID mice; conditions: DCs infected with lentivirus expressing the polypeptide, vs lentivirus expressing wild-type polypeptide; FIG. 7
From the text: In the presence of plasmids pSPAX2 and pMD2G, such seven lentiviral vectors each were used to co-transfect 293T cells for packaging lentivirus, thus obtaining lentivirus expressing the wild-type polypeptide (depicted in […], SEQ ID NO:5), lentivirus expressing the mutant polypeptide (depicted in […], SEQ ID NO:1), lentivirus expressing the mutant polypeptide's variant (depicted in […], SEQ ID NO:2), lentivirus expressing the mutant polypeptide's variant (depicted in […], SEQ ID NO:3), and lentivirus expressing the mutant polypeptide's variant (depicted in […], SEQ ID NO:4), respectively.
(§1) The human non-small cell lung adenocarcinoma cell line NCI-H2087 which is HLA-A*0201 positive was purchased from ATCC (Cat. No.: CRL-5922). The cell line NCI-H2087 was incubated in the Dulbecco's Modified Eagle Medium (DMEM) containing 10% fetal calf serum, 100 U/mL penicillin and 100 U/mL streptomycin in an incubator under 37° C. and 5% CO2, and subsequently infected with the lentivirus expressing the mutant polypeptide (depicted in […], SEQ ID NO:1) as prepared in 6.1. Afterwards, the infected cells were incubated with the Puromycin antibiotic for a certain duration to screen out those viable infected cells, i.e., obtaining the human non-small cell lung adenocarcinoma cell line H2087 which expresses the mutant polypeptide (depicted in […], SEQ ID NO:1) and named as the human non-small cell lung adenocarcinoma cell line H2087—polypeptide […] (SEQ ID NO:1).
(§2) After isolated with Ficoll solution from 600 to 900 ml anticoagulant peripheral blood from a healthy volunteer, the collected PBMCs in a concentration of 2×10^7 cells/0.5 ml were intraperitoneally injected into each of 300 NOD SCID mice without immune leakage, so as to reconstruct a human immune system in the NOD SCID mice, with the mice after 4 weeks selected for subsequent inoculation of the human non-small cell lung adenocarcinoma cell line H2087—polypeptide […] obtained in 6.2.
(§3) The human non-small cell lung adenocarcinoma cell line H2087—polypeptide […] (SEQ ID NO:1) obtained in 6.2 was incubated in DMEM medium containing 10% fetal calf serum, 100 U/mL penicillin and 100 U/mL streptomycin in an incubator under 37° C. and 5% CO2, and then the cells were centrifuged at 3000 rpm for collection. The collected cells were washed with sterile physiological saline three times, and then diluted appropriately. To 40 μl tumor cell suspension, 10 μl 0.4% […] was added for staining, subsequently the tumor cell suspension in a concentration of 1×10^8 cells/ml was prepared after counting under microscope. 100 μl of the tumor cell suspension was inoculated into each of the NOD/SCID mice by subcutaneous injection at 4 weeks post immune reconstruction in 6.3, with daily observation of the presence/absence of infection at inoculation sites, the increase/decrease of tumor size (in the case of presence of a tumor), and measurement of the major axis (a) and the minor axis (b) of a tumor by a vernier caliper every 2 or 3 days (where the tumor size=a×b×b/2). After 7 days from inoculation, a tumor in a size of rice grain was touchable at the inoculation site. After that, the subcutaneous tumor-modeled NOD/SCID mice (modeled with H2087—polypeptide […] (SEQ ID NO:1)) were treated with a polypeptide+complete Freund's adjuvant vaccine, a polypeptide+DCs vaccine, a lentivirus-infected DCs vaccine and a DC-CTL vaccine respectively, with the tumor size and mouse survival rate observed and recorded every 2 days.
Peripheral blood mononuclear cells (PBMCs) in 100 to 150 mL anticoagulant peripheral blood obtained from a healthy volunteer were isolated with Ficoll solution. […]

[3] = tested on: human non-small cell lung adenocarcinoma cell line H2087—polypeptide FLLGNLFFV (SEQ ID NO:1); test: Polypeptide-specific DC-CTL vaccine in subcutaneous tumor-modeled mice; format: in vivo, NOD/SCID mice; conditions: CTLs stimulated by DCs loaded with the polypeptide, i.v. 1×10^8 cells/mouse, vs wild-type polypeptide group; FIG. 8
Procedure: as §1, §2, §3
The CD8^+ T cells sorted with CD8 magnetic beads from PBLs in the example 8 were firstly stimulated by incubating with the DCs loaded with the wild-type polypeptide (depicted in […], SEQ ID NO:5), the DCs loaded with the mutant polypeptide (depicted in […], SEQ ID NO:1), the DCs loaded with the mutant polypeptide's variant (depicted in […], SEQ ID NO:2), the DCs loaded with the mutant polypeptide's variant (depicted in […], SEQ ID NO:3), and the DCs loaded with the mutant polypeptide's variant (depicted in […], SEQ ID NO:4), respectively, in a ratio of 1:4 of DCs:CD8^+ T cell, in an incubator under 37° C. and 5% CO2 in the presence of 500 IU/ml IL-2 and 50 ng/ml IL-7, with the second and third stimulations at week 2 and week 3 using DCs loaded with corresponding polypeptides respectively. The number of T lymphocytes was counted at day 0, 7, 14 and 21 post incubation, for calculation of cell proliferation index (PI), where PI=cell number after proliferation/cell number seeded. […]

[4] = effector:target 1:1, T2 cells loaded with mutant FLLGNLFFV
[5] = effector:target 1:1, T2 cells loaded with wild-type FLLGNLSFV
[6] = effector:target 10:1, T2 cells loaded with mutant FLLGNLFFV
[7] = effector:target 10:1, T2 cells loaded with wild-type FLLGNLSFV

Sequence | Killing of T2 cells loaded with the mutant polypeptide (in words) [1] | Killing of T2 cells loaded with the wild-type polypeptide (in words) [1] | Killing efficiency [1, 4] | Killing efficiency [1, 5] | Killing efficiency [1, 6] | Killing efficiency [1, 7] | Mouse survival period [2] | Tumor growth [2] | Mouse survival period [3] | Tumor growth [3]
FLLGNLFFL | capable of killing | could not kill | 8.53% | 3.12% | 41.66% | 5.71% | prolonging mouse survival period effectively | inhibiting tumor growth | prolonging mouse survival period significantly | inhibiting tumor growth
FLLGNLFFV | capable of killing | could not kill | 8.96% | 3.23% | 43.89% | 6.63% | prolonging mouse survival period effectively | inhibiting tumor growth | prolonging mouse survival period significantly | inhibiting tumor growth
FMLGNLFFL | capable of killing | could not kill | 8.03% | 2.85% | 38.66% | 5.43% | prolonging mouse survival period effectively | inhibiting tumor growth | prolonging mouse survival period significantly | inhibiting tumor growth
FMLGNLFFV | capable of killing | could not kill | 8.12% | 2.37% | 39.82% | 4.93% | prolonging mouse survival period effectively | inhibiting tumor growth | prolonging mouse survival period significantly | inhibiting tumor growth
